{
  "source": "patent US10195257B2",
  "about": "(Qantu Therapeutics, Inc., priority 2013, dated 2019)",
  "origin": "cited, not measured here",
  "key": {"T cells": {"system": "T cells", "settings": "in vivo"}, "Aβ": {"system": "Aβ", "settings": "without any adjuvant, administered intra-nasally"}, "OVA-specific CTLs": {"system": "OVA-specific CTLs", "settings": "mice immunized with OVA plus adjuvant"}},
  "data": [
    {"compound": "O=Cc1c(O)cccc1OCc1ccc(C(=O)O)cc1", "note": "[tucaresol, 4-(2-formyl-3-hydroxyphenoxymethylbenzoic acid)]", "values": [
      {"measurement": "type of immunity favored", "setting": "T cells", "value": "favors a Th1-biased immunity with a Th1-type cytokine profile and concomitant CTL production"}
    ]},
    {"compound": "Aβ40: main Aβ peptide that contains amino acid residues from 1 to 40", "values": [
      {"measurement": "immune response and Aβ plaques", "setting": "Aβ", "value": "Th2 immune response and reduced levels of Aβ plaques"}
    ]},
    {"compound": "QS-21", "values": [
      {"measurement": "immune response type and CTL production", "setting": "OVA-specific CTLs", "value": "Th1 immune response with the concomitant production of OVA-specific CTLs"}
    ]}
  ]
}
